Laboratory results: US4673676A, “Pyrimidoisoquinoline derivatives useful for treating allergies” (Fujisawa Pharmaceutical Co., Ltd., priority 1983, dated 1987)

System: PCA (Passive Cutaneous Anaphylaxis) reaction
Assay: Inhibitory effect on PCA (Passive Cutaneous Anaphylaxis) reaction
Format: in vivo, male SD (Spraque-Dawley) strain rats
Settings: rat, 1 mg/kg intravenously, 5 minutes before the challenge with antigen; percent inhibition of dye spot size vs control
Method: A solution of egg albumin (2 mg) in B. pertussisdiphtheria-tetanus mixed vaccine (1 ml) was mixed with Freund incomplete adjuvant (1 ml) to give an emulsion. The emulsion was given subcutaneously in a single dose of 1 ml divided equally (0.25 ml) to the four foot pads of male SD (Spraque-Dawley) strain rats aged 8 weeks, each weighing about 300 g.
8 days after the immunization, blood samples were collected from femoral artery of the rats and allowed to stand under ice-cooling for 5 hours. The separated supernatant was centrifuged at 4° C. (10,000 r.p.m.×1 hour). The antisera thus obtained were stored at -80° C. prior to use.
Male SD-strain rats aged 8 weeks, weighing 250 to 300 g, were used for PCA reaction with the homologous reaginic antiserum as prepared above. Each 0.1 ml of 32 fold diluted antiserum were injected intradermally at separate sites on the back of rats clipped free of hair, and 48 hours later, 1 ml of aqueous solution containing each 5 mg of the egg albumin and Evans blue was injected intravenously to evoke PCA reaction. Test compound was given to the animals intravenously 5 minutes before the challenge with antigen. Control group received vehicle. Each dose group consisted of 4 animals. […] The results were expressed by percent inhibition values calculated from averaged values of the longest and shortest diameters for each spot in comparison with those in control group. […]

Substance: N-(1H-tetrazol-5-yl)-10-(2,3-dimethylpentanoylamino)-7-methyl-4-oxo-4H-pyrimido[2,1-a]isoquinoline-3-carboxamide [Example 11]
- Inhibitory effect: 100%
